According to US11197856B2, “Bicyclic compounds and methods for their use in treating autism” (priority 2013, dated 2021):

Key:
Krox24 = Krox24 immunohistochemical staining of hippocampus; assay type: in vivo, male Wistar rats; conditions: CA1-2 regions; vs vehicle
Method: Aged rats (male Wistar rats, 18-20 months old) were divided into four groups: two vehicle-treated (groups 1 and 3) and two G-2-AllylP treated (groups 2 and 4) (all groups n=6-8). Cyclic G-2-AllylP was synthesised by the Department of Medicinal Chemistry and dissolved in normal saline before the treatment. On day 1 a single dose of cyclic G-2-AllylP was given centrally (20 ng/animal, i.c.v.) to the animals in groups 2 and 4; saline was administered to groups 1 and 3. The memory tests using Novel Object Recognition Test started either on day 3 (groups 1 and 2) or 24 (groups 3 and 4) after the treatment. On the completion of the NORT, the rats were killed with an overdose of sodium pentobarbital and were perfused transcardially with normal saline followed by 10% formalin. Tissues collected at day 7 in groups 1 and 2, and at day 28 from groups 3 and 4. The brains were kept in the same fixative for a minimum of 2 days before being processed using a standard paraffin embedding procedure. Briefly, small blocks (10×10×3 mm) of tissue were fixed for up to 24 hrs. The blocks were then infiltrated and embedded with paraffin and cut in ribbons and mounted on slides. Slides were then stored until immunostaining was commenced. Synaptogenesis in brain tissue was examined using immunohistochemical staining.
The neuronal transcript factor Krox24 staining is used as a marker for neuronal plasticity. […]

MeCP2 deficient mice = test: Survival of MeCP2 deficient mice (Rett Syndrome model); conditions: for survival: MeCP2 deficient mice
Method: We treat hemizygous MeCP2(1lox) male mice with 20 mg/kg/day of cG-2-AllylP or saline, (0.01% BSA, n=15 per group in survival experiment and n=20 in the LTP experiment). The treatments are administered intraperitoneally from 4 weeks after birth. For the survival experiments the treatment is maintained through the course of the experiment. For the LTP experiment the mice are treated until week 9 when they are used for slice preparation.
MeCP2 deficient mutant mice develop RTT symptoms at about 4-6 weeks of age and […] (Chen et al., 2001. Nat Genet 27: 327-331). We compare the survival of the wild type controls and the MeCP2 deficient animals in vehicle- and cG-2-AllylP-treated groups. Survival is measured weekly from start of treatment (4 weeks) and used to produce Kaplan-Meier survival curves to show the proportion of mice that survive (y axis) at each weekly interval (x axis).
For the survival measurements, the nocturnal activity analysis and the immunoblot analysis, cG-2-AllylP supplied by Neuren Pharmaceuticals Limited is administered daily via intra-peritoneal injections (20 mg/kg, vehicle=saline, 0.01% BSA). The treatment starts at PI 5 and is maintained throughout the course of the experiments. For intracellular physiology experiments, the mice are injected daily with cG-2-AllylP (20 mg/kg body weight, vehicle=saline, 0.01% BSA) for 2 weeks, from P15 to P28-P32 when they are used for acute slice preparation. For optical imaging experiments, mice are injected with cG-2-AllylP (20 mg/kg body weight, vehicle=saline, 0.01% BSA) daily from the day of the lid suture to the day of imaging.
Therefore, we administer cG-2-AllylP orally to MeCP2 deficient mice. Briefly, an aqueous solution or other composition containing a pharmaceutically effective amount of cG-2-AllylP (20 or 80 mg/kg per animal) is administered daily.

[1] = system: growth-associated protein-43 (GAP-43); test: PBBI in rats: GAP-43 immunohistochemistry in hippocampus; assay type: in vivo, Sprague-Dawley rats; conditions: 30 mg/kg oral once daily
Method: The methods for producing PBBI in this Example is the same as described above for Example 26. Adult Sprague-Dawley rats were randomly assigned into three groups: sham (craniotomy only), PBBI+vehicle (i.e. H2O), and PBBI+cG-2-AllylP. cG-2-AllylP (or vehicle) was administered via oral gavage at 30 mg/kg at 30 min post-injury and continued once daily thereafter for 7, 14 or 28 days. At each treatment endpoint, rats were perfused and brains were processed for histological analysis (n=5-6/group/time-point). For detection of axonal sprouting, immunohistochemical detection of growth-associated protein-43 (GAP-43) was employed. Synaptogenesis was determined by immunohistochemistry for synaptophysin (SYN). For histological quantification, the integrated density in the hippocampal region was determined using NIH ImageJ software.

[2] = system: fmr1-knockout mice and wild-type mice; test: Elevated Plus Maze; assay type: in vivo
Source text: In another study, we used an “Elevated Plus Maze.” The Elevated Plus Maze test is one of the most widely used tests for measuring anxiety-like hyperactivity in mice. The test is based on the natural aversion of mice for open and elevated areas, as well as on their natural spontaneous exploratory behavior in novel environments. FIG. 23 depicts a photograph of a device used in this study. The apparatus consists of two open arms and two closed arms, crossed in the middle perpendicularly to each other, and a center area. The open arms are more exposed and therefore create more anxiety in the mice. Mice therefore spend more time in the closed arms and visit them more frequently. Mice were given access to all of the arms and were allowed to move freely between them. The number of entries into the open arms, the time spent in the open arms, and time spent in the center were used as indices of open space-induced anxiety.

C=CC[C@]12CCCN1C(=O)CNC2=O [cG-2-AllylP, (8aS)-Allyl-hexahydropyrrolo[1,2-a]pyrazine-1,4-dione]
density of the Krox24 staining (Krox24): trend towards the increased density | life expectancy (MeCP2 deficient mice; MeCP2-/y mice, 20 mg/kg daily intra-peritoneal from P15): increase in life expectancy | survival (MeCP2 deficient mice; 20 mg/kg/day intraperitoneally from 4 weeks): survive substantially longer than saline-treated mice | survival (MeCP2 deficient mice; oral, 20 or 80 mg/kg daily): survival is increased substantially | safety concerns (MeCP2 deficient mice; mecp2 mice, 20 mg/kg/day intraperitoneally): No safety concerns are raised | injury-induced reduction in GAP-43 expression ([1]; 7d or 14d post-PBBI): no effect on injury-induced reductions | PBBI-induced reduction in GAP-43 expression ([1]; 28 days post-injury): attenuated PBBI-induced reductions | time spent in the closed arm ([2]; fmr1-knockout animals): normalized the time spent in the closed arm | time spent in the open arms ([2]; fmr1-knockout animals): normalized the time spend in the open arms | time spent in the center ([2]; fmr1-knockout mice, p<0.001): significantly less time than vehicle-treated fmr1-knockout animals | time spent in the center ([2]; wild-type mice): slightly less time in the center than did vehicle-treated wild-type animals | time spent in the closed arm ([2]; wild-type mice): about the same amount of time in the closed arm
